Measurements taken from US10472391B2 (priority 2013, dated 2019).

Experiments:
ADAM10 = molecular target: T1, ADAM10 (Homo sapiens, UniProt O14672); experiment: IC50 of GI254023X (assay not given)
T1 sequence (O14672 214-748): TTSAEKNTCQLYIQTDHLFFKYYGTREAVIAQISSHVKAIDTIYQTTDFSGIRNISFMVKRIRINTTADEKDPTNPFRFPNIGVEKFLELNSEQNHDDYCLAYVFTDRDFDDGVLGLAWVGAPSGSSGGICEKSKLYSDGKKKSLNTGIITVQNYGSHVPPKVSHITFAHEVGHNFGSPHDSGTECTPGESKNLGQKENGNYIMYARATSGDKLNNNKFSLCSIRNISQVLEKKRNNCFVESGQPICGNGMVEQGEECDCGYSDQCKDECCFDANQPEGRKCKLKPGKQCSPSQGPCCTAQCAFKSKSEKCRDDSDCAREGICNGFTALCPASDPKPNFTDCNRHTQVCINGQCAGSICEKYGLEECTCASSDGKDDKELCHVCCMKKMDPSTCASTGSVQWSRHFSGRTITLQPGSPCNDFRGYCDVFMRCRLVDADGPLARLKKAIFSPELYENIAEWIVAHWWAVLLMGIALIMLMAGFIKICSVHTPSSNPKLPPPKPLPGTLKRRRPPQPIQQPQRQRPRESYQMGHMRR

A549 cells = format: cell-based
[1] = system: Hla-mediated cytotoxicity; conditions: cited from earlier work

In the case of `CNC(=O)[C@@H](NC(=O)[C@H](CCCc1ccccc1)[C@H](C)N(O)C=O)C(C)(C)C` [GI254023X, (R)—N—((S)-3,3-dimethyl-1-(methylamino)-1-oxobutan-2-yl)-2-((S)-1-(N-hydroxyformamido)-ethyl)-5-phenylpentanamide], the IC50 (ADAM10) is listed as ~5 µM, the “inhibition of binding of radiolabelled Hla to A549 cells” value (A549 cells) is listed as “inhibition of binding of radiolabelled Hla to A549 cells” and the “effect on Hla-mediated cytotoxicity” value [1] is listed as “prevents Hla-mediated cytotoxicity”.
